Measured values reported in article PMC9762789, “Chromone-based monoamine oxidase B inhibitor with potential iron-chelating activity for the treatment of Alzheimer’s disease” (Journal of Enzyme Inhibition and Medicinal Chemistry, 2022).
Where two headings read alike, the source gives them in different places.

Legend:
MAO-B = biological target: T1, MAO-B (Homo sapiens, UniProt P27338); experiment: hMAO-B inhibition assay; type: biochemical; conditions: for inhibition at 0.1 µM: read-out: Inhibitory rate (%, 100 nM)
T1 construct: purchased Sigma-Aldrich
T1 sequence (P27338 1-520): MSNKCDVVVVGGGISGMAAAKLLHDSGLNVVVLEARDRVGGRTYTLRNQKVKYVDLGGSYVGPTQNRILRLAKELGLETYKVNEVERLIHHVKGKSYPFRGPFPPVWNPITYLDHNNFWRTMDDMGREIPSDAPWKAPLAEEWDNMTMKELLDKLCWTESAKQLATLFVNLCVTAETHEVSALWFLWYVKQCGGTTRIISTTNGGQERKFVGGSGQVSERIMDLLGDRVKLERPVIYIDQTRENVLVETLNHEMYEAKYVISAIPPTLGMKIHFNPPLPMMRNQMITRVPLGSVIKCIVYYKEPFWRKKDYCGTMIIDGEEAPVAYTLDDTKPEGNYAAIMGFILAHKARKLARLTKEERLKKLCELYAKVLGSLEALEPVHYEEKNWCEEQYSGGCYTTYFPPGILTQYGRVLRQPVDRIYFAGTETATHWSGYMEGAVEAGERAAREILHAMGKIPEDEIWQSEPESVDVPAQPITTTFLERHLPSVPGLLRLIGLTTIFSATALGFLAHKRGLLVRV
Description: (§1) The reagents and enzymes (Human MAO-B and Human MAO-A) applied in this experiment were purchased from Sigma-Aldrich. According to the manuals, all components (substrate solution and enzyme solution) are diluted and placed aside for use. The detailed process has been mentioned in our early work[34].

PAMPA-BBB assay = type: in vitro ADME; conditions: PAMPA-BBB, mean ± SEM of eight independent experiments
From the text: Good blood–brain barrier (BBB) permeability is the key to exerting drug efficacy in the treatment of central nervous system diseases. To evaluate whether the target compound could penetrate BBB, a parallel artificial membrane permeability assay (PAMPA) was used to predict[32]^,[33]. […] Therefore, due to its potential ability to cross the BBB, compound 17d was selected for subsequent assay.
PAMPA was used to predict the BBB permeability of the screened compound. The detailed process has been mentioned in our early work[32]^,[33].

[1] = iron (III) affinity constants and pFe3+ by spectrophotometric titration; type: physicochemical; conditions: for Log β1 / Log β2 / Log β3: DMSO: KCl (0.1 M) = 1:1.5 (v/v); for pFe^3+: calculated from Log β values obtained in DMSO: KCl (0.1 M) = 1:1.5 (v/v)
[2] = pKa determination by automated spectrophotometric titration; type: physicochemical; conditions: 0.1 M KCl solution
Human MAO-A = biological target: T2, Human MAO-A (Homo sapiens, UniProt P21397); experiment: hMAO-A inhibition assay; type: biochemical; conditions: for inhibition at 10 µM: read-out: hMAO-A inhibitory rate at 10 μM, 10 μM (highest concentration tested)
T2 construct: purchased Sigma-Aldrich
T2 sequence (P21397 1-527): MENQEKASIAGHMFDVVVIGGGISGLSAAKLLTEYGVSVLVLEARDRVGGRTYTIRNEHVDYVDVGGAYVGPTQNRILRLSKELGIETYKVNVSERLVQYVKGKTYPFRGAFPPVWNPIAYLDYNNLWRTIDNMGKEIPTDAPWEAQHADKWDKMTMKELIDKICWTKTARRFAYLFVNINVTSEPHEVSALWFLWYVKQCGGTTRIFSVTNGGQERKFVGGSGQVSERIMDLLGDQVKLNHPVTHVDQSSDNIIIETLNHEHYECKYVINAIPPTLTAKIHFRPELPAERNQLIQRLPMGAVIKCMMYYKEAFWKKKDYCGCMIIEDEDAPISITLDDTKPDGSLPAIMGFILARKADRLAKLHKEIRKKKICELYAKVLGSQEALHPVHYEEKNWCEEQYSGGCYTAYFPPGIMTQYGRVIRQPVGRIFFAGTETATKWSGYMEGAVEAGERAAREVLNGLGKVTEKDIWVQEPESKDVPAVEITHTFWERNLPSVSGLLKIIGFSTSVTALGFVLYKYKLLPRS
Description: Further, the inhibitory activity of compounds against hMAO-A isoform was tested and calculated as a selectivity index [Selectivity index (SI): IC50 (hMAO-A)/IC50 (hMAO-B)].
as §1

[3] = system: scopolamine-induced cognitive impairment mice model; experiment: Morris water maze test, scopolamine-induced memory impairment; type: in vivo, ICR mice; parameters: Distance to first entry: unit not given here; conditions: 15 mg/kg, scopolamine 15 mg/kg, ICR mice, mean ± SEM, n = 15; for Latency to first entry: in s (unit assumed)
From the text: To further explore the in vivo anti-AD effect of compound 17d on the scopolamine-induced cognitive impairment mice model, the Morris Water Maze experiment was selected; data are shown in Figure 7 and Table 5.
Figure 7.
Adult female ICR mice (weight 20–25 g) were obtained from the Zhejiang Academy of Medical Sciences (Hangzhou, China). Scopolamine hydrobromide and Pargyline were purchased from Aladdin Reagents. Memantine was purchased from Energy Chemical. All experiments were approved by the Laboratory Animals Ethical Committee of the Zhejiang University of Technology (No. 20211210103). In this test, mice were prepared as clarified and clear injections, consisting of 20% (2-Hydroxypropyl)-β-cyclodextrin, 10% DMSO, and PBS. […] Mice were administered at a frequency of once a day over 15 d with a fixed dosing schedule. The body weight of mice was measured during the experiment.
After eliminating environmental stress, the behavioural test was performed over the next five days. The mice were trained to find the platform (10 cm diameter) in the circular light-avoidance pool (120 cm diameter and 60 cm height) filled with water (40 cm, depth), which was described in detail in our previous study. All mice received at least one training session daily in four quadrants for four consecutive days before the probe trial of finding the platform within 120 s. Recordings were made with SMART version 3.0 (Panlab, Spain) and processed by Graphpad Prism version 6 software (Graphpad Software Inc., La Jolla, CA, USA).

Cc1c(O)c(=O)ccn1CCNCc1coc2ccccc2c1=O [Compound 17a, 3-Hydroxy-2-methyl-1–(2-(((4-oxo-4H-chromen-3-yl)methyl)amino)ethyl)pyridin-4(1H)-one]
IC50 (MAO-B): 67.3 ± 1.9 nM
SI: hMAO-B selectivity index = IC50 (hMAO-A)/IC50 (hMAO-B) (MAO-B): 30.7
inhibition at 0.1 µM (MAO-B; hMAO-B, 100 nM): 53.1 ± 1.6%
Pe ± SEM (PAMPA-BBB assay): 1.22 ± 0.22 *10^−6 cm/s
Papp (PAMPA-BBB assay; read-out: Pe ± SEM): 1.22 ± 0.22 ×10⁻⁶ cm/s
Log β1 [1]: 13.46
Log β2 [1]: 25.19
Log β3 [1]: 35.28
pFe^3+ [1]: 18.62
melting point: 248 to 250 °C
pKa ([2]; read-out: pKa1): 2.81
pKa ([2]; read-out: pKa2): 9.8
IC50 (Human MAO-A): 2060 ± 35.4 nM

Cc1ccc2c(=O)c(CNCCn3ccc(=O)c(O)c3C)coc2c1 [Compound 17b, 3-Hydroxy-2-methyl-1–(2-(((7-methyl-4-oxo-4H-chromen-3-yl)methyl)amino)ethyl)pyridin-4(1H)-one]
IC50 (MAO-B): 82.78 ± 0.7 nM
SI: hMAO-B selectivity index = IC50 (hMAO-A)/IC50 (hMAO-B) (MAO-B): >120
inhibition at 0.1 µM (MAO-B; hMAO-B, 100 nM): 49.5 ± 0.3%
Log β1 [1]: 13.58
Log β2 [1]: 25.38
Log β3 [1]: 35.34
pFe^3+ [1]: 18.61
melting point: 251 to 253 °C
pKa ([2]; read-out: pKa1): 2.95
pKa ([2]; read-out: pKa2): 9.82
inhibition at 10 µM (Human MAO-A): < 20%

Cc1ccc2occ(CNCCn3ccc(=O)c(O)c3C)c(=O)c2c1 [Compound 17c, 3-Hydroxy-2-methyl-1–(2-(((6-methyl-4-oxo-4H-chromen-3-yl)methyl)amino)ethyl)pyridin-4(1H)-one]
IC50 (MAO-B): 86.3 ± 0.7 nM
SI: hMAO-B selectivity index = IC50 (hMAO-A)/IC50 (hMAO-B) (MAO-B): >116
inhibition at 0.1 µM (MAO-B; hMAO-B, 100 nM): 44.23 ± 0.1%
Log β1 [1]: 13.31
Log β2 [1]: 25.00
Log β3 [1]: 34.07
pFe^3+ [1]: 17.55
melting point: 259 to 261 °C
pKa ([2]; read-out: pKa1): 2.75
pKa ([2]; read-out: pKa2): 9.76
inhibition at 10 µM (Human MAO-A): < 20%

COc1ccc2occ(CNCCn3ccc(=O)c(O)c3C)c(=O)c2c1 [Compound 17e, 3-Hydroxy-1–(2-(((6-methoxy-4-oxo-4H-chromen-3-yl)methyl)amino)ethyl)-2-methylpyridin-4(1H)-one]
IC50 (MAO-B): 88.7 ± 5.3 nM
SI: hMAO-B selectivity index = IC50 (hMAO-A)/IC50 (hMAO-B) (MAO-B): >112
inhibition at 0.1 µM (MAO-B; hMAO-B, 100 nM): 46.4 ± 1.3%
Log β1 [1]: 13.32
Log β2 [1]: 25.08
Log β3 [1]: 34.89
pFe^3+ [1]: 18.12
melting point: 267 to 269 °C
pKa ([2]; read-out: pKa1): 2.76
pKa ([2]; read-out: pKa2): 9.83
inhibition at 10 µM (Human MAO-A): < 20%

Cc1c(O)c(=O)ccn1CCNCc1coc2cc(OCc3ccccc3)ccc2c1=O [Compound 17f, 1–(2-(((7-(Benzyloxy)-4-oxo-4H-chromen-3-yl)methyl)amino)ethyl)-3-hydroxy-2-methylpyridin-4(1H)-one]
IC50 (MAO-B): 76.4 ± 3.8 nM
SI: hMAO-B selectivity index = IC50 (hMAO-A)/IC50 (hMAO-B) (MAO-B): 10.4
inhibition at 0.1 µM (MAO-B; hMAO-B, 100 nM): 49 ± 0.6%
Log β1 [1]: 13.20
Log β2 [1]: 24.70
Log β3 [1]: 33.77
pFe^3+ [1]: 17.45
melting point: 169 to 171 °C
pKa ([2]; read-out: pKa1): 2.73
pKa ([2]; read-out: pKa2): 9.69
IC50 (Human MAO-A): 795 ± 0.7 nM

Cc1cccc(COc2ccc3c(=O)c(CNCCn4ccc(=O)c(O)c4C)coc3c2)c1 [Compound 17g, 3-Hydroxy-2-methyl-1–(2-(((7-((3-methylbenzyl)oxy)-4-oxo-4H-chromen-3-yl)methyl)amino)ethyl)pyridin-4(1H)-one]
IC50 (MAO-B): 78 ± 4.3 nM
SI: hMAO-B selectivity index = IC50 (hMAO-A)/IC50 (hMAO-B) (MAO-B): 21.4
inhibition at 0.1 µM (MAO-B; hMAO-B, 100 nM): 55.8 ± 2.7%
Log β1 [1]: 13.02
Log β2 [1]: 24.75
Log β3 [1]: 33.78
pFe^3+ [1]: 17.66
melting point: 211 to 213 °C
pKa ([2]; read-out: pKa1): 2.68
pKa ([2]; read-out: pKa2): 9.62
IC50 (Human MAO-A): 1666 ± 5.7 nM

Cc1c(O)c(=O)ccn1CCNCc1coc2cc(OCc3ccc(F)cc3)ccc2c1=O [Compound 17j, 1–(2-(((7-((4-Fluorobenzyl)oxy)-4-oxo-4H-chromen-3-yl)methyl)amino)ethyl)-3-hydroxy-2-methylpyridin-4(1H)-one]
IC50 (MAO-B): 102 ± 3.2 nM
SI: hMAO-B selectivity index = IC50 (hMAO-A)/IC50 (hMAO-B) (MAO-B): >99
inhibition at 0.1 µM (MAO-B; hMAO-B, 100 nM): 46 ± 0.7%
Log β1 [1]: 13.13
Log β2 [1]: 24.78
Log β3 [1]: 33.73
pFe^3+ [1]: 17.89
melting point: 218 to 220 °C
pKa ([2]; read-out: pKa1): 2.76
pKa ([2]; read-out: pKa2): 9.53
inhibition at 10 µM (Human MAO-A): < 20%

Cc1c(O)c(=O)ccn1CCNCc1coc2cc(OCc3cccc(Cl)c3)ccc2c1=O [Compound 17k, 1–(2-(((7-((3-Chlorobenzyl)oxy)-4-oxo-4H-chromen-3-yl)methyl)amino)ethyl)-3-hydroxy-2-methylpyridin-4(1H)-one]
IC50 (MAO-B): 114 ± 3.8 nM
SI: hMAO-B selectivity index = IC50 (hMAO-A)/IC50 (hMAO-B) (MAO-B): >88
inhibition at 0.1 µM (MAO-B; hMAO-B, 100 nM): 43.1 ± 2%
Log β1 [1]: 12.99
Log β2 [1]: 24.76
Log β3 [1]: 33.88
pFe^3+ [1]: 18.31
melting point: 226 to 228 °C
pKa ([2]; read-out: pKa1): 2.53
pKa ([2]; read-out: pKa2): 9.43
inhibition at 10 µM (Human MAO-A): < 20%

Cc1c(O)c(=O)ccn1CCNCc1coc2cc(OCc3ccc(Cl)cc3)ccc2c1=O [Compound 17l, 1–(2-(((7-((4-Chlorobenzyl)oxy)-4-oxo-4H-chromen-3-yl)methyl)amino)ethyl)-3-hydroxy-2-methylpyridin-4(1H)-one]
IC50 (MAO-B): 75.6 ± 3.1 nM
SI: hMAO-B selectivity index = IC50 (hMAO-A)/IC50 (hMAO-B) (MAO-B): 17.4
inhibition at 0.1 µM (MAO-B; hMAO-B, 100 nM): 61.4 ± 3.4%
Log β1 [1]: 13.02
Log β2 [1]: 24.99
Log β3 [1]: 34.39
pFe^3+ [1]: 18.70
melting point: 189 to 191 °C
pKa ([2]; read-out: pKa1): 2.61
pKa ([2]; read-out: pKa2): 9.47
IC50 (Human MAO-A): 1310 ± 13.4 nM

CC12CC3CC(C)(C1)CC(N)(C3)C2 [Memantine]
Entries to target [3]: 4.0 ± 0.3
Latency to first entry [3]: 13 ± 1
Entries to target ([3]; listed as memantine): 4.0 ± 0.3
Latency to first entry ([3]; listed as memantine): 13 ± 1

C#CCN(C)Cc1ccccc1 [Pargyline]
inhibition at 0.1 µM (MAO-B): 48.9 ± 1.7%
Distance to first entry [3]: 2.6 ± 0.3
Entries to target [3]: 5.3 ± 0.9
Latency to first entry [3]: 11 ± 1
Distance to first entry ([3]; listed as pargyline): 2.6 ± 0.3
Entries to target ([3]; listed as pargyline): 5.3 ± 0.9
Latency to first entry ([3]; listed as pargyline): 11 ± 1
